Assay results reported in patent EP4725956A1, “MODIFIED POLYPEPTIDE AND USE THEREOF IN FIELD OF ANALGESIA” (Nanjing Anji Biotechnology Co., Ltd., priority 2023, dated 2024).
Positions of bridges follow the written chain, without caps; N, C: chain ends. Non-standard residues stand in square brackets, D forms with d. Residues, ends and D or L forms follow the SMILES beside them. Bip = N[C@@H](Cc1ccc(-c2ccccc2)cc1)C(=O)O; Hyp = O=C(O)[C@@H]1C[C@@H](O)CN1; Nle = CCCC[C@H](N)C(=O)O; Orn = NCCC[C@H](N)C(=O)O; Aib = CC(C)(N)C(=O)O

How the values were obtained:
α9 nAChR = target: T1, α9 nAChR (Homo sapiens, UniProt Q9UGM1); experiment: BLI (biolayer interferometry) affinity of peptides to α9 nAChR; type: binding; settings: NTA sensor, α9 nAChR 5 µg/mL, peptide 1.372-1000 nM in PBS
T1 construct: inferred from capture on NTA sensor
Excerpt: BLI is a label-free technology that converts optical interference signals occurring on the surface of BLI biosensors into real-time response signals. By monitoring the molecular binding process in real time, the system determines association rate constants (ka or kon), dissociation rate constants (kd or koff), and initial binding rates, and calculates affinity (KD) by fitting analysis. Here are the specific procedures: NTA sensors (Sartorius) were placed in a pre-wetting tray, which was then positioned in a black 96-well plate with 200 µL PBS per well. The NTA sensors were pre-wetted for at least 15 minutes. The target protein α9 nAChR was diluted in PBS to 5 µg/mL, with 200 µL added per well. Test peptides were dissolved in PBS and serially diluted threefold, with concentrations from high to low as 1000 nM, 333.3 nM, 111.1 nM, 37.04 nM, 12.35 nM, 4.115 nM, and 1.372 nM, with an additional well with PBS only as a zeroconcentration control. After equilibrating the instrument baseline, the NTA sensor was used to immobilize the target protein α9 nAChR. Once immobilization was complete, the baseline was re-equilibrated, followed by a 5-minute association and a 5-minute dissociation phase. Affinity measurements of the test peptides were conducted sequentially using the above procedure. The procedure for measuring peptide affinity to α7 nAChR was similar, except that the α7 nAChR concentration was 20 µg/mL. Tables 2 and 3 show the BLI-determined affinities of alanine-scan peptide analogs with target proteins, which identified sites on the parent peptide suitable for modification. Subsequently, single-site non-natural amino acid substituted peptides were evaluated by BLI for target protein affinity. Finally, multi-site combinatorial modified peptides were measured for affinity by BLI, leading to the selection of high-affinity peptides for further screen and drug development potential. Table 2 Test Results for Affinity of Modified Peptides to α9 nAChR

[1] = system: mouse oxaliplatin acute chemotherapy pain model; experiment: Mouse oxaliplatin chemotherapy pain model, multiple peptides (Example 8); type: in vivo; settings: single dose 3 mg/kg s.c., 0.5-8 h post-dose, n=3
Experimental: Oxaliplatin was dissolved in 5% glucose solution to a concentration of 1 mg/mL. For model induction, each male C57 mouse (Shanghai Bikai Keyi Biotechnology Co., Ltd.) received a single intraperitoneal injection of oxaliplatin at 10 mg/kg. Mice in the negative control or blank control group received 5% glucose solution. Approximately one week after model induction, mechanical pain thresholds of the mice were measured three times per mouse, and the average value was calculated. Mice were then randomly assigned to groups based on their pain thresholds. Drug administration was carried out according to the dosing schedule shown in Table 7, with a single dose per mouse. Mechanical pain thresholds were measured at 0.5, 1, 2, 4, 6, and 8 h post-dose. […] Table 7 Dosing Scheme for Oxaliplatin Chemotherapy Pain Model in Mice

[2] = Plasma stability of AJ003-40 and AJ003-24 (HPLC, Example 4); type: in vitro ADME; settings: human plasma; for main peak area: 2 mg/mL
Experimental: Peptides AJ003-40 and AJ003-24 were separately weighed and mixed with human plasma to prepare solutions at 2 mg/mL. 300 µL of peptide-containing plasma was mixed with 300 µL acetonitrile, centrifuged at 4°C and 12,000 rpm for 5 minutes, and the supernatant was filtered through an organic membrane. 200 µL of the filtrate was transferred to an LC vial as the 0 h sample. Peptide-containing plasma was incubated in a 37°C water bath. For AJ003-40, 300 µL of plasma was sampled at 24 h, mixed with 300 µL acetonitrile, centrifuged, filtered, and 200 µL of the filtrate was transferred to an LC vial as the 24 h sample. For AJ003-24, 300 µL of plasma was sampled at 22 h, processed similarly, and 200 µL of the filtrate was transferred to an LC vial as the 22 h sample.

T1 sequence (Q9UGM1 23-479): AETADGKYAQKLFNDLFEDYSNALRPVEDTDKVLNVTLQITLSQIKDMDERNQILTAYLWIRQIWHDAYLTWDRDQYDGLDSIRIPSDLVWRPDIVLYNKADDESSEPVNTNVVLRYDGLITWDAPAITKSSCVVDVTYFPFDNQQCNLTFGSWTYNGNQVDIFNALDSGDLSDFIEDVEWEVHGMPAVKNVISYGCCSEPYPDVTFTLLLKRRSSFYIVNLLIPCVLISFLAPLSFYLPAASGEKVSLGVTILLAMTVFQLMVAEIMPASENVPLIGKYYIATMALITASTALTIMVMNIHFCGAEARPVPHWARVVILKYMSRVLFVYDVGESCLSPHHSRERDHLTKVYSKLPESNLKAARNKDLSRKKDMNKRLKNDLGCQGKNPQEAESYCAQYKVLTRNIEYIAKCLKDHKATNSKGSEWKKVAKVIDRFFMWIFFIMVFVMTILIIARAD

CC(C)C[C@H](NC(=O)[C@@H](NC(=O)[C@H]1CSSC[C@H](NC(=O)[C@H](CO)NC(=O)CN)C(=O)N[C@@H](CO)C(=O)N[C@@H]([C@@H](C)O)C(=O)N2CCC[C@H]2C(=O)N2CCC[C@H]2C(=O)N[C@@H](CO)C(=O)N1)C(C)C)C(=O)N[C@@H](Cc1ccc(O)cc1)C(=O)N[C@@H](CO)C(=O)O [AJ003, GSCSTPPS-(D-Cys)-VLYS (disulfide bond between positions 3 and 9)] (H-GSCSTPPS[dC]VLYS-OH; disulfide 3-9)
Kd (α9 nAChR): 4.48 nM

CCCC[C@H](NC(=O)[C@@H](NC(=O)[C@H]1CSSC[C@H](NC(=O)[C@H](CO)NC(=O)CN)C(=O)N[C@@H](CO)C(=O)N[C@H]([C@H](C)O)C(=O)N2C[C@H](O)C[C@H]2C(=O)N2C[C@H](O)C[C@H]2C(=O)NC(C)(C)C(=O)N1)C(C)C)C(=O)N[C@@H](Cc1ccc(-c2ccccc2)cc1)C(=O)N[C@@H](CCCN)C(N)=O [AJ003-36, GSCS-(D-Thr)-Hyp-Hyp-Aib-(D-Cys)-V-Nle-Bip-Orn-NH2 (3,9 disulfide bond)] (H-GSCS[dT][Hyp][Hyp][Aib][dC]V[Nle][Bip][Orn]-NH2; disulfide 3-9)
analgesic activity against oxaliplatin-induced chemotherapy pain (mechanical pain threshold compared with the model group) [1]: effective analgesic activity

CCCC[C@H](NC(=O)[C@@H](NC(=O)[C@H]1CSSC[C@H](NC(=O)[C@H](CO)NC(=O)CN)C(=O)N[C@@H](CO)C(=O)N[C@H]([C@H](C)O)C(=O)N2C[C@H](O)C[C@H]2C(=O)N2C[C@H](O)C[C@H]2C(=O)N[C@@H](CO)C(=O)N1)C(C)C)C(=O)N[C@@H](Cc1c[nH]c2ccccc12)C(=O)N[C@@H](CCCN)C(N)=O [AJ003-40, GSCS-(D-Thr)-Hyp-Hyp-S-(D-Cys)-V-Nle-W-Orn-NH2 (3,9 disulfide bond)] (H-GSCS[dT][Hyp][Hyp]S[dC]V[Nle]W[Orn]-NH2; disulfide 3-9)
main peak area ([2]; 0 h): 15149.38 | main peak area ([2]; 37°C, 24 h): 11829.51 | metabolised at 24 h, 2 mg/mL ([2]; 37°C, 24 h, read-out: degradation): 21.9%
